These results are taken from patent publication US20050234046A1 (Kalypsys, Inc., priority 2004, published 2005).

A value given as a limit tells only on which side of the number the result lay.

Assay in all cases: Transient transfection (transactivation) assay in CV-1 cells, GAL4-PPAR chimera, luciferase reporter
Holding throughout (format): cell-based

One test deals with T1, PPAR gamma (Homo sapiens, UniProt P37231).
T1 construct: expressed in transfected cells; host or cells: CV-1 cells
T1 sequence (P37231 238-503 limits assumed): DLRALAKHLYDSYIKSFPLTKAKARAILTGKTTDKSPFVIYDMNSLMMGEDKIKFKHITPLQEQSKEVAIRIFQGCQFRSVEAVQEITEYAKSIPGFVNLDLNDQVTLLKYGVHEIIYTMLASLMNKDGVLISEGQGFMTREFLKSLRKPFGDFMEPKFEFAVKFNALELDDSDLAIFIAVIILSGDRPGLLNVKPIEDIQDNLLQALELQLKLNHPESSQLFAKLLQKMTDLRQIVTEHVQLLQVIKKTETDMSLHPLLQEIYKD

The target in the next test is T2, PPAR alpha (Homo sapiens, UniProt Q07869).
T2 construct: expressed in transfected cells; host or cells: CV-1 cells
T2 sequence (Q07869 239-466 limits assumed): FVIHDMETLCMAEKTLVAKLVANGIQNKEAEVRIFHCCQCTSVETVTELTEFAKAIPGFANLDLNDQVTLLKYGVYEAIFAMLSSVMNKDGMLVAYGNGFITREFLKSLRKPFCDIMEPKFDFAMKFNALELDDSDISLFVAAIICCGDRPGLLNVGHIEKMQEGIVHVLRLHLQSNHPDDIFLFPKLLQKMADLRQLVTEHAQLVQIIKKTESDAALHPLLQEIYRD
An outline of the steps:
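GAL4 DNA-binding domain fused to PPAR ligand binding domain, co-transfected into CV-1 cells with a luciferase reporter carrying four or five GAL4 sites. Replated cells in phenol-red free DME with 5% delipidated calf serum were treated with compound or 1% DMSO for 20-24 hours; luciferase read for EC50 and efficacy.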

The next test addresses T3, PPAR delta (Homo sapiens, UniProt Q03181).
T3 construct: expressed in transfected cells; host or cells: CV-1 cells
T3 sequence (Q03181 211-439 limits assumed): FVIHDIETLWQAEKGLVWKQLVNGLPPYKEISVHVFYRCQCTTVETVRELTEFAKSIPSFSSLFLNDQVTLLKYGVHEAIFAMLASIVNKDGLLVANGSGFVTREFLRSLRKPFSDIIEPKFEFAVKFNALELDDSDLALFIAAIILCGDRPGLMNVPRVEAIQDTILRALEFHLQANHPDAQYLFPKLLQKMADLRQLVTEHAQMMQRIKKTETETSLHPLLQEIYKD

In the case of `Cc1ccc(N2CCN(S(=O)(=O)c3cccc(CC(=O)O)c3)CC2)c(C)c1` [Example 117, {3-[4-(2,4-Dimethyl-phenyl)-piperazine-1-sulfonyl]-phenyl}-acetic acid], the values for the half-maximal effective concentration (EC50) at PPAR gamma, at PPAR alpha and on PPAR delta were 5 to 100 µM, > 100 µM and < 5 µM, respectively.
On to `Cc1cccc(N2CCN(S(=O)(=O)c3cccc(CC(=O)O)c3)CC2C)c1` (stereo not drawn) [Example 118, [3-(3-methyl-4-m-tolyl-piperazine-1-sulfonyl)-phenyl]-acetic acid], for which the EC50 (usually the concentration at which the effect is half-maximal) is 5 to 100 µM on PPAR gamma, > 100 µM on PPAR alpha and 5 to 100 µM at PPAR delta.
As to `Cc1ccc(N2CCN(S(=O)(=O)c3cccc(CC(=O)O)c3)CC2)cc1C` [Example 119, {3-[4-(3,4-Dimethyl-phenyl)-piperazine-1-sulfonyl]-phenyl}-acetic acid], the EC50 on PPAR gamma, on PPAR alpha and on PPAR delta was 5 to 100 µM each time.
On to `Cc1ccc(Cl)cc1N1CCN(S(=O)(=O)c2cccc(CC(=O)O)c2)CC1` [Example 120, {3-[4-(5-Chloro-2-methyl-phenyl)-piperazine-1-sulfonyl]-phenyl}-acetic acid], for which the EC50 at PPAR gamma, on PPAR alpha and on PPAR delta was > 100 µM throughout.
As to `O=C(O)Cc1cccc(S(=O)(=O)N2CCN(CCc3ccccc3)CC2)c1` [Example 121, [3-(4-phenethyl-piperazine-1-sulfonyl)-phenyl]-acetic acid], the 50% effective concentration (EC50) at PPAR gamma, at PPAR alpha and at PPAR delta was > 100 µM each time.
For the compound `N#Cc1ccc(N2CCN(S(=O)(=O)c3cccc(CC(=O)O)c3)CC2)cc1` [Example 122, {3-[4-(4-Cyano-phenyl)-piperazine-1-sulfonyl]-phenyl}-acetic acid], the EC50 on PPAR gamma is > 100 µM; at PPAR alpha, > 100 µM; at PPAR delta, 5 to 100 µM.
On to `O=C(O)Cc1cccc(S(=O)(=O)N2CCN(Cc3ccc(F)cc3)CC2)c1` [Example 123, {3-[4-(4-Fluoro-benzyl)-piperazine-1-sulfonyl]-phenyl}-acetic acid], for which the concentration giving a half-maximal response (EC50) on PPAR gamma was 5 to 100 µM; on PPAR alpha it was > 100 µM; on PPAR delta, 5 to 100 µM.
Regarding `COc1ccc(N2CCN(S(=O)(=O)c3cccc(CC(=O)O)c3)CC2)cc1` [Example 124, {3-[4-(4-Methoxy-phenyl)-piperazine-1-sulfonyl]-phenyl}-acetic acid], the figures for the EC50 on PPAR gamma, on PPAR alpha and at PPAR delta were 5 to 100 µM, > 100 µM and 5 to 100 µM, respectively.
With `O=C(O)Cc1cccc(S(=O)(=O)N2CCN(c3cccc(Br)c3)CC2)c1` [Example 125, {3-[4-(3-Bromo-phenyl)-piperazine-1-sulfonyl]-phenyl}-acetic acid], the EC50 on PPAR gamma, at PPAR alpha and at PPAR delta was 5 to 100 µM in each case.
With `CC(C)(C)c1ccc(N2CCN(S(=O)(=O)c3cccc(CC(=O)O)c3)CC2)cc1` [Example 126, {3-[4-(4-tert-butyl-phenyl)-piperazine-1-sulfonyl]-phenyl}-acetic acid], the EC50 on PPAR gamma is < 5 µM; on PPAR alpha, 5 to 100 µM; on PPAR delta, 5 to 100 µM.
For `COc1ccc(N2CCN(S(=O)(=O)c3cccc(CC(=O)O)c3)CC2)cc1OC` [Example 127, {3-[4-(3,4-Dimethoxy-phenyl)-piperazine-1-sulfonyl]-phenyl}-acetic acid], the EC50 on PPAR gamma, on PPAR alpha and on PPAR delta was > 100 µM each time.
Regarding `O=C(O)Cc1cccc(S(=O)(=O)N2CCN(c3ccc(C(F)(F)F)cc3[N+](=O)[O-])CC2)c1` [Example 128, {3-[4-(2-Nitro-4-trifluoromethyl-phenyl)-piperazine-1-sulfonyl]-phenyl}-acetic acid], the concentration for a half-maximal effect (EC50) at PPAR gamma, on PPAR alpha and at PPAR delta was 5 to 100 µM throughout.
Turning to `COc1ccccc1N1CCN(S(=O)(=O)c2cccc(CC(=O)O)c2)CC1` [Example 129, {3-[4-(2-Methoxy-phenyl)-piperazine-1-sulfonyl]-phenyl}-acetic acid], the EC50 at PPAR gamma, on PPAR alpha and at PPAR delta was > 100 µM in each case.
